From US8618289B2 (Ambit Biosciences Corporation, priority 2008, dated 2013) come the findings set out here.

Structures are written as SMILES. Where two headings read alike, the source gives them in different places.

In experiment [1] the target is T1, RAF kinases (Homo sapiens, UniProt P04049). The note with it: read-out: RAF1 Kd; RAF1.
Procedure: (§1) Competition binding assays used herein were developed, validated and performed as described in Fabian et al., Nature Biotechnology 2005, 23, 329-336. […] The liganded beads were blocked with excess biotin and washed with blocking buffer (SeaBlock (Pierce), 1% BSA, 0.05% Tween 20, 1 mM DTT) to remove unbound ligand and to reduce non-specific binding. […] Test compounds were prepared as 100× stocks in DMSO and rapidly diluted into the aqueous environment. DMSO was added to control assays lacking a test compound. Primary screen interactions were performed in polypropylene 384-well plates in a final volume of 34 μt, while Kd determinations were performed in polystyrene 96-well plates in a final volume of 135 pt. […] The kinase concentration in the eluates was measured by quantitative PCR. Each kinase was tested individually against each compound. Kds were determined using eleven serial threefold dilutions. A selectivity score, which is a quantitative measure of selectivity of a compound against a panel of enzymes, may be calculated for a compound by dividing the number of enzymes for which a compound meets a set criteria, (for example, a binding constant of 100 nM or less), by the total number of enzymes tested. […] (Note, for those compounds tested in a larger kinase panel, as indicated by an asterisk (*) next to the S35 score, the divisor is 321 (i.e. the larger panel contains 321 distinct kinases, excluding mutant variants.)).
For experiment [2], the target named is T2, RAF kinases (Homo sapiens, UniProt P15056). The note with it: read-out: BRAF WT Kd; BRAF WT.
Procedure: as §1
Experiment [3] deals with T3, RAF kinases (Homo sapiens, UniProt P15056, V600E). The note with it: read-out: BRAF V600E Kd; BRAF V600E.
Procedure: as §1
For experiment [4], the system named is 290 distinct kinases tested excluding mutant variants (321 in the larger panel).
Procedure: as §1
In experiment [5] the test system is MEK1 phosphorylation in the A375 human melanoma cell line. Briefly: cells. To be noted: A-375, read-out: pMEK IC50.
The subject of a further experiment is A375 cells. Briefly: cells. To be noted: Homo sapiens, A-375, read-out: A375 Viability EC50.
Experiment [6] concerns the target T1, RAF kinases. Briefly: biochemical.
Procedure: as §1
In experiment [7] the target is T3, RAF kinases. Briefly: biochemical.
Procedure: as §1
The target in experiment [8] is T2, RAF kinases. The experiment is described as follows: biochemical.
Procedure: as §1
Setting [9] is: no asterisk: panel of 290 distinct kinases.

T2 sequence (P15056 whole entry): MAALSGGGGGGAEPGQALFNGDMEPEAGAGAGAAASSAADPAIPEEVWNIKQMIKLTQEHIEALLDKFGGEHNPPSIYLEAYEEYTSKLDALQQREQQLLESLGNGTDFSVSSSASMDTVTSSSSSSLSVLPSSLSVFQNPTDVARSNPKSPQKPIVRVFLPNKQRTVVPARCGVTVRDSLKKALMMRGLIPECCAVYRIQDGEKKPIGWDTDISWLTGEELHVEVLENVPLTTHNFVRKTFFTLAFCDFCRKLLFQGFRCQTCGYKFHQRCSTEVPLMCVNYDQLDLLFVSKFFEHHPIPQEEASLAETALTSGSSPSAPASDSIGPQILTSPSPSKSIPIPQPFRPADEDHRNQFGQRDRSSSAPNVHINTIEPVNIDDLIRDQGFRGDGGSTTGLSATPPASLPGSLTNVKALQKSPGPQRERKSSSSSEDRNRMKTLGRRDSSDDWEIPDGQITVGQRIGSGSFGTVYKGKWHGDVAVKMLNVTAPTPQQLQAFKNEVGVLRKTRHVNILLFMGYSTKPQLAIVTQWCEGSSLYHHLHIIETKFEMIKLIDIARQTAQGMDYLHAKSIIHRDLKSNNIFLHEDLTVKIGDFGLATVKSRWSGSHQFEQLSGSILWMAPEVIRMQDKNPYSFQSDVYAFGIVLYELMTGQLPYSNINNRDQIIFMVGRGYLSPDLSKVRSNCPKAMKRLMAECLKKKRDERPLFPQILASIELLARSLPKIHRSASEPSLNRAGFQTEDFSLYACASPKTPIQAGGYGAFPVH
T3 sequence (P15056 whole entry V600E): as the sequence (P15056 whole entry) above, with V600E counted along it
T1 sequence (P04049 whole entry): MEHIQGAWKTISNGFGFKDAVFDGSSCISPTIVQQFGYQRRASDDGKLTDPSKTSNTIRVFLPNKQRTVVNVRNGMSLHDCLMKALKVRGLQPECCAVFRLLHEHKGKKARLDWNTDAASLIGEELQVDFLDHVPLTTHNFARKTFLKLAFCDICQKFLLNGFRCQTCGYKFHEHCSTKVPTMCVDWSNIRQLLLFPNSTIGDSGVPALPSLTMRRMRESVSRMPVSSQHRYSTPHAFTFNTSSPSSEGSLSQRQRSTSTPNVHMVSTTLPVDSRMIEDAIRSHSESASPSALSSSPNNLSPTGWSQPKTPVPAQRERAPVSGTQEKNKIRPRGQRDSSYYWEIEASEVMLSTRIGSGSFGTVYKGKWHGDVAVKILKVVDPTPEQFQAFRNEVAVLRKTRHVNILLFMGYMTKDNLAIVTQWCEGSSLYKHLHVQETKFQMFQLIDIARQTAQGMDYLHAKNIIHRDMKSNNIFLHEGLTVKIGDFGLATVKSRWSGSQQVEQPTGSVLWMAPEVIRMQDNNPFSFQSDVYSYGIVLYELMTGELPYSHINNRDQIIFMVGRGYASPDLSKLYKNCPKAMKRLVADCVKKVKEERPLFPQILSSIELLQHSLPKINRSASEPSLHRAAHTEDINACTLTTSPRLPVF
Procedure for A375 cells: The following day, the medium was replaced with 0.5% FBS in M3 for overnight incubation. […] The cells were incubated with compound or control for 72 hours at 37° C. under 10% CO2. Following incubation, Cell Titer Blue reagent (Promega) was added to each well containing compounds or controls, and then incubated for 3 hours at 37° C. under 10% CO2. Proliferation was measured by fluorescence with excitation at 560 nm and emission at 590 nm using SoftMax Pro.

Consider `COc1cc2ncnc(Sc3cccc(NC(=O)Nc4cc(C(C)(C)C)nn4-c4ccccn4)c3)c2cc1OC` [Ex 345, 1-(3-tert-butyl-1-(pyridin-2-yl)-1H-pyrazol-5-yl)-3-(3-(6,7-dimethoxyquinazolin-4-ylthio)phenyl)urea], for which the Kd on RAF kinases [1], on RAF kinases [2] and on RAF kinases [3] was more than 1000 nM throughout. In [4] (setting [9]), the S35 entry is given as “B (0.10 < B ≦ 0.20)”. Also, the IC50 (as a rule, the concentration that gives 50% inhibition) in experiment [5] was in the range of 500 to 1000 nM. In addition, in the experiment on A375 cells, the EC50 – broadly, the concentration giving half of the maximal effect – was more than 1000 nM.

On to `COc1cc2ncnc(Sc3cccc(NC(=O)Nc4cc(C5CC5)nn4-c4ccccc4)c3)c2cc1OC` [Ex 354, 1-(3-cyclopropyl-1-phenyl-1H-pyrazol-5-yl)-3-(3-(6,7-dimethoxyquinazolin-4-ylthio)phenyl)urea], for which the Kd on RAF kinases [1], at RAF kinases [2] and at RAF kinases [3] was less than 250 nM throughout. In addition, in [4] (setting [9]), the S35 result is on record as “C (0.20 < C ≦ 0.40)”. Also, the IC50 in experiment [5] was in the range of 250 to 500 nM. Moreover, the EC50 with A375 cells lay in the range of 250 to 500 nM.

`COc1cc2ncnc(Oc3cccc(NC(=O)Nc4cc(C(C)(C)C)nn4C4CCCCC4)c3)c2cc1OC` [Ex 330, 1-(3-tert-butyl-1-cyclohexyl-1H-pyrazol-5-yl)-3-(3-(6,7-dimethoxyquinazolin-4-yloxy)phenyl)urea]: the Kd (commonly the concentration at which binding is half-saturated) on RAF kinases [1] is more than 1000 nM; on RAF kinases [2], more than 1000 nM; on RAF kinases [3], less than 250 nM. Further, in experiment [4] (setting [9]), the S35 result was “C (0.20 < C ≦ 0.40)”. Also, the IC50 in experiment [5] is more than 1000 nM. Further, the EC50 with A375 cells is more than 1000 nM.

Regarding `COc1cc2nc(Cl)nc(Oc3cccc(NC(=O)Nc4cc(C(C)(C)C)on4)c3)c2cc1OC` [Ex 310, 1-(5-tert-butylisoxazol-3-yl)-3-(3-(2-chloro-6,7-dimethoxyquinazolin-4-yloxy)phenyl)urea], the dissociation constant (Kd) on RAF kinases [2] was more than 1000 nM; at RAF kinases [6] it was 500 to 1000 nM; at RAF kinases [7], 500 to 1000 nM. The S35 result in [4] (setting [9]) is given as “A (A ≦ 0.10)”. Further, the IC50 in experiment [5] is more than 1000 nM. The EC50 with A375 cells was more than 1000 nM.

For the molecule `COc1ccc(-n2nc(C(C)C)cc2NC(=O)Nc2cccc(Sc3ncnc4cc(OC)c(OC)cc34)c2)cc1` [Ex 349, 1-(3-(6,7-dimethoxyquinazolin-4-ylthio)phenyl)-3-(3-isopropyl-1-(4-methoxyphenyl)-1H-pyrazol-5-yl)urea], the Kd at RAF kinases [2] was more than 1000 nM; at RAF kinases [3], less than 250 nM; on RAF kinases [6], 500 to 1000 nM. Also, in [4] (setting [9]), the S35 entry is recorded as “C (0.20 < C ≦ 0.40)”. Also, in experiment [5], the IC50 was less than 250 nM. Moreover, the EC50 in the experiment on A375 cells was less than 250 nM.

Consider `COc1cc2ncnc(Sc3cccc(NC(=O)Nc4cc(C(C)C)nn4-c4cccnc4)c3)c2cc1OC` [Ex 351, 1-(3-(6,7-dimethoxyquinazolin-4-ylthio)phenyl)-3-(3-isopropyl-1-(pyridin-3-yl)-1H-pyrazol-5-yl)urea], for which the Kd was less than 250 nM at RAF kinases [1], less than 250 nM on RAF kinases [3] and 500 to 1000 nM at RAF kinases [8]. In addition, the S35 entry in experiment [4] (setting [9]) is on record as “C (0.20 < C ≦ 0.40)”. For the same molecule, in experiment [5], the IC50 was less than 250 nM. For the same molecule, the EC50 in the experiment with A375 cells was in the range of 250 to 500 nM.

For `COc1cc2c(Sc3cccc(NC(=O)Nc4cc(C(C)(C)C)on4)c3)ncnc2cc1OCCN1CCN(CCO)CC1` [Ex 84, 1-(5-tert-butylisoxazol-3-yl)-3-(3-(7-(2-(4-(2-hydroxyethyl)piperazin-1-yl)ethoxy)-6-methoxyquinazolin-4-ylthio)phenyl)urea], the S35 entry in [4] (setting [9]) is listed as “D (D > 0.40)”. Further, the IC50 in experiment [5] was less than 250 nM. Further, in the experiment on A375 cells, the EC50 was more than 1000 nM. For the same molecule, the Kd is 250 to 500 nM on RAF kinases [6], 250 to 500 nM on RAF kinases [8] and less than 250 nM on RAF kinases [7].

For the molecule `COc1ccc(-n2nc(C(C)C)cc2NC(=O)Nc2cccc(Oc3ncnc4cc(OC)c(OC)cc34)c2)cc1` [Ex 348, 1-(3-(6,7-dimethoxyquinazolin-4-yloxy)phenyl)-3-(3-isopropyl-1-(4-methoxyphenyl)-1H-pyrazol-5-yl)urea], the Kd is more than 1000 nM on RAF kinases [2], less than 250 nM on RAF kinases [3] and 500 to 1000 nM on RAF kinases [6]. The S35 result in experiment [4] (setting [9]) is listed as “D (D > 0.40)”. The IC50 in experiment [5] was less than 250 nM. Besides, the EC50 in the experiment with A375 cells was less than 250 nM.

Regarding `COc1cc2ncnc(Oc3cccc(NC(=O)Nc4cc(C(C)(F)F)nn4-c4cncc(F)c4)c3)c2cc1OC` [Ex 316, 1-(3-(1,1-difluoroethyl)-1-(5-fluoropyridin-3-yl)-1H-pyrazol-5-yl)-3-(3-(6,7-dimethoxyquinazolin-4-yloxy)phenyl)urea], the dissociation constant (Kd) is less than 250 nM on RAF kinases [1], less than 250 nM at RAF kinases [3] and 250 to 500 nM at RAF kinases [8]. Besides, the S35 entry in [4] (setting [9]) was “C (0.20 < C ≦ 0.40)”. In addition, the IC50 in experiment [5] was 250 to 500 nM. In the experiment with A375 cells, the EC50 fell in the range of 500 to 1000 nM.

Consider `COc1cc2ncnc(Oc3cccc(NC(=O)Nc4cc(C5CC5)nn4-c4ccccc4)c3)c2cc1OC` [Ex 353, 1-(3-cyclopropyl-1-phenyl-1H-pyrazol-5-yl)-3-(3-(6,7-dimethoxyquinazolin-4-yloxy)phenyl)urea], for which the Kd was less than 250 nM on RAF kinases [1], less than 250 nM at RAF kinases [3] and 250 to 500 nM at RAF kinases [8]. For the same molecule, the S35 entry in experiment [4] (setting [9]) is “C (0.20 < C ≦ 0.40)”. For the same molecule, the IC50 in experiment [5] was 250 to 500 nM. Also, in the experiment with A375 cells, the EC50 lay within 250 to 500 nM.

For `COc1ccc(-n2nc(C(C)(F)F)cc2NC(=O)Nc2cccc(Oc3ncnc4cc(OC)c(OC)cc34)c2)cc1` [Ex 315, 1-(3-(1,1-difluoroethyl)-1-(4-methoxyphenyl)-1H-pyrazol-5-yl)-3-(3-(6,7-dimethoxyquinazolin-4-yloxy)phenyl)urea], the Kd at RAF kinases [2] is more than 1000 nM; on RAF kinases [3], less than 250 nM; on RAF kinases [6], 500 to 1000 nM. In addition, the S35 result in experiment [4] (setting [9]) was “D (D > 0.40)”. In addition, in [5], the IC50 is less than 250 nM. Also, the EC50 with A375 cells was less than 250 nM.

Take `COc1cc2ncnc(Sc3cccc(NC(=O)Nc4cc(C(C)(C)C)nn4C4CCCCC4)c3)c2cc1OC` [Ex 331, 1-(3-tert-butyl-1-cyclohexyl-1H-pyrazol-5-yl)-3-(3-(6,7-dimethoxyquinazolin-4-ylthio)phenyl)urea]: the S35 result in experiment [4] (setting [9]) is given as “B (0.10 < B ≦ 0.20)”. In experiment [5], the half-inhibitory concentration (IC50) is less than 250 nM. The EC50 with A375 cells is more than 1000 nM. Moreover, the Kd on RAF kinases [6] is 500 to 1000 nM; on RAF kinases [8], 500 to 1000 nM; at RAF kinases [7], 250 to 500 nM.

For `COc1cc2ncnc(Oc3cccc(NC(=O)Nc4cc(C(C)(C)CO)no4)c3)c2cc1OC` [Ex 255, 1-(3-(6,7-dimethoxyquinazolin-4-yloxy)phenyl)-3-(3-(1-hydroxy-2-methylpropan-2-yl)isoxazol-5-yl)urea], in [4] (setting [9]), the S35 entry was “C (0.20 < C ≦ 0.40)”. For the same molecule, in experiment [5], the IC50 is more than 1000 nM. Besides, the EC50 in the experiment with A375 cells was more than 1000 nM. The Kd was 250 to 500 nM on RAF kinases [6], 250 to 500 nM on RAF kinases [8] and less than 250 nM on RAF kinases [7].

On to `COc1cc2ncnc(Oc3cccc(NC(=O)Nc4cc(C(C)(C)C(F)(F)F)nn4-c4ccccc4)c3)c2cc1OC` [Ex 306, 1-(3-(6,7-dimethoxyquinazolin-4-yloxy)phenyl)-3-(1-phenyl-3-(1,1,1-trifluoro-2-methylpropan-2-yl)-1H-pyrazol-5-yl)urea], for which the S35 result in experiment [4] (setting [9]) is “D (D > 0.40)”. Also, in experiment [5], the IC50 was less than 250 nM. Also, the Kd at RAF kinases [6] is more than 1000 nM; on RAF kinases [8] it was more than 1000 nM; at RAF kinases [7], 250 to 500 nM.

For the molecule `COc1cc2ncnc(Oc3cccc(NC(=O)Nc4cc(C(C)(C)C)nn4-c4ccnc(C)c4)c3)c2cc1OC` [Ex 320, 1-(3-tert-butyl-1-(2-methylpyridin-4-yl)-1H-pyrazol-5-yl)-3-(3-(6,7-dimethoxyquinazolin-4-yloxy)phenyl)urea], the figures for the Kd on RAF kinases [1], on RAF kinases [2] and at RAF kinases [3] were more than 1000 nM, more than 1000 nM and less than 250 nM, respectively. Moreover, in experiment [4] (setting [9]), the S35 result was “D (D > 0.40)”. In [5], the IC50 is less than 250 nM.

In the case of `COc1cc2ncnc(Sc3cccc(NC(=O)Nc4cc(C(F)(F)F)nn4-c4ccc(C)cc4)c3)c2cc1OC` [Ex 199, 1-[3-(6,7-dimethoxyquinazolin-4-ylthio)phenyl]-3-[1-p-tolyl-3-(trifluoromethyl)-1H-pyrazol-5-yl]urea], the S35 entry in experiment [4] (asterisk: panel of 321 distinct kinases) is reported as “D* (D > 0.40)”. Moreover, in [5], the IC50 is less than 250 nM. Moreover, the EC50 in the experiment with A375 cells is more than 1000 nM. Besides, the equilibrium dissociation constant (Kd) on RAF kinases [6], on RAF kinases [8] and at RAF kinases [7] was more than 1000 nM throughout.

In the case of `COc1cc2ncnc(Oc3cccc(NC(=O)Nc4cc(C(C)(C)C)nn4-c4ccc(=O)[nH]c4)c3)c2cc1OC` [Ex 317, 1-(3-tert-butyl-1-(6-oxo-1,6-dihydropyridin-3-yl)-1H-pyrazol-5-yl)-3-(3-(6,7-dimethoxyquinazolin-4-yloxy)phenyl)urea], the Kd on RAF kinases [2] is more than 1000 nM; on RAF kinases [3], less than 250 nM; at RAF kinases [6] it was 500 to 1000 nM. Moreover, the S35 result in [4] (setting [9]) is recorded as “D (D > 0.40)”. Also, the IC50 in experiment [5] was more than 1000 nM. Besides, in the experiment with A375 cells, the EC50 was more than 1000 nM.

Consider `CCn1nc(C(C)(C)C)cc1NC(=O)Nc1cccc(Sc2ncnc3cc(OC)c(OC)cc23)c1` [Ex 321, 1-(3-tert-butyl-1-ethyl-1H-pyrazol-5-yl)-3-(3-(6,7-dimethoxyquinazolin-4-ylthio)phenyl)urea], for which the Kd at RAF kinases [1] is less than 250 nM; at RAF kinases [3] it was less than 250 nM; at RAF kinases [8], 250 to 500 nM. Also, in experiment [4] (setting [9]), the S35 entry is “C (0.20 < C ≦ 0.40)”. Moreover, the IC50 in experiment [5] is 250 to 500 nM. In the experiment with A375 cells, the EC50 is 500 to 1000 nM.
